Assays:
PC-3 cells = assay: Fluid shear stress protocol (repeated passage through 30 gauge needle), cell viability; format: cell-based, human; settings: for shear stress resistance of cells in PBS supplemented with the cation: 88 mM final concentration, n=1
Procedure: (§1) 5 mL of a 5×10^5 cell/mL suspension was placed into 10 mL glass beaker (Pyrex) and loaded into a 5 mL syringe (BD Biosciences #309603) by slowly drawing the cells into the syringe manually. A 30 gauge needle (BD Biosciences #305106) was then attached to the syringe and cells were pushed through at a constant flow rate by one of two methods:
Syringe Pump: A Harvard Apparatus PHD-2000 Infuse/Withdraw syringe pump was calibrated for the syringes being used and set to the appropriate flow rate (see Table I). After securing the syringe to the pump housing, a 6-inch small bore extension set (Smiths Medical MX448L) was used to connect the syringe and needle. The 10 mL beaker was secured at a 45-degree angle and the needle rested gently (without damaging the bevel) at the bottom of the beaker. The pump is then turned on and the cell suspension was collected into the beaker. The bore extension, still connected to the needle, was then removed from the syringe, and the syringe was removed from the pump. The cell suspension was re-loaded into the syringe as described above. In a standard assay, this process was repeated until cells have been passaged a total of ten times (control experiments were taken out to 15 passages). After each passage, 100 μL aliquots of cell suspension were removed from the glass beaker in duplicate for viability assays (described below). For non-shear stress treated control, cells which have been in suspension for the entire duration of the assay were aliquoted and treated as 100% viability controls.
(§2) 250 μL/sec flow rate: This is the most commonly used flow rate throughout this example. To facilitate throughput, some experiments at 250 μL/sec were done manually. Here, cell suspensions were prepared as above with one exception: the small bore extension was not used, rather the needle was directly secured to the syringe. Suspensions were pushed through the needle by hand and collected into a 10 mL glass beaker. To control the flow rate using this approach, a timer was zeroed before each needle passage and the time taken to push a given volume through the needle was measured. At each passage, the volume in milliliters was divided by the time in seconds to give flow rate in mL/sec. Data for figures was only obtained from shear stress assays in which the average flow rate over 10 passages was ±10 μL/sec of the targeted 250 μL/sec. […] Further, to assure reproducibility, most assays were repeated ten times or more.
Bioluminescence Imaging (BLI): 100 μL aliquots of shear stress-treated cells or control cells (those sitting in suspension through the duration of shear treatment) were loaded into a black 96 well plate (Costar) in duplicate. Each well was then diluted to 200 μL at final concentration of 150 μg/mL D-luciferin (Promega) using a multichannel pipette. Plates were incubated for 5 minutes at room temperature and then imaged for 5 minutes in an IVIS-100 (Xenogen). Bioluminescence measurements were collected using Living Image 2.50.1 software (Igor Pro). The photon flux of shear treated cells was divided by that of control cells to give % viability. All figures with BLI-derived viability data represent the average of at least 3 experiments.
Next, whether rearrangements of the cytoskeleton occur in response to shear stress and thereby imparts a protective advantage to cells was investigated. […]

MDA.MB.231 cells = assay: as above; format: cell-based, human
Procedure: as §1
as §2, with “more. […]” for “more.”

[1] = 20 nM for one hour before shear stress protocol
[2] = brief treatment prior to shear stress protocol

| SMILES | shear stress resistance of cells in PBS supplemented with the cation (PC-3 cells; 250 μL/sec) | cell death in treated cells versus DMSO treated controls after shear stress protocol (PC-3 cells; [1]) | cell viability during pretreatment, before shear stress (PC-3 cells; [2]) | cell death in treated cells versus DMSO treated controls after shear stress protocol (MDA.MB.231 cells; [1]) | cell viability during pretreatment, before shear stress (MDA.MB.231 cells; [2]) | survival curve under shear stress of cells in PBS supplemented with the cation (PC-3 cells; 250 μL/sec, calcium at same concentration as complete medium (129.4 μg/mL)) |
| --- | --- | --- | --- | --- | --- | --- |
| [Ba] [barium] | equally susceptible to shear stress as cells in nominally calcium-free PBS |  |  |  |  |  |
| C=C1[C@@H](C)[C@H]2[C@H](Cc3ccccc3)NC(=O)[C@]23[C@H](OC(C)=O)/C=C/[C@@](C)(O)C(=O)[C@@H](C)C/C=C/[C@H]3[C@@H]1O [cytochalasin-D] |  | over 3 fold | not affected | over 3 fold | not affected |  |
| [Ca+2] [calcium] | rescues the shear stress resistance phenotype |  |  |  |  | not significantly different from the media control suspensions |

Reference: patent US11921020B2, “Method of purifying tumor cells using shear stress” (UNIVERSITY OF IOWA RESEARCH FOUNDATION, priority 2011, dated 2024)
